Measured values from PMC8297402, “Trifluoromethyl-substituted 3,5-bis(arylidene)-4-piperidones as potential anti-hepatoma and anti-inflammation agents by inhibiting NF-кB activation” (Journal of Enzyme Inhibition and Medicinal Chemistry, 2021).
Like-named read-outs stand apart in the source and are kept apart here.

Tests used:
TNF-α = assay: ELISA of TNF-α release in LPS-stimulated RAW264.7 cells; assay type: cell-based, mouse; conditions: RAW264.7, ELISA; for inhibition at 5 µM: RAW264.7, BAPs (5 μM) + LPS (1 μg/mL)
Method: (§1) We tested by inhibiting the secretion of TNF-α and IL-6 to better evaluated the anti-inflammatory effects of BAPs. […] Under the stimulation of LPS (1.0 μg/mL) with RAW264.7 cells, the release of TNF-α and IL-6 was detected. Besides, after treated with BAPs (5.0 μM) and LPS (1.0 μg/mL), the release of TNF-α and IL-6 was measured with an ELISA kit (eBioScience, San Diego, California), respectively. In general terms, pyrrolidine dithiocarbamate (PDTC, 30 μM) or BAP (5.0 μM) was used to pretreat cells for 2 h, respectively. Then, LPS (1.0 μg/mL) was added and cells were incubated for another 22 h. Finally, the culture media were centrifuged at 1000 rpm for 10 min, and the expression levels of TNF-α and IL-6 were determined by ELISA.

IL-6 = assay: ELISA of IL-6 release in LPS-stimulated RAW264.7 cells; assay type: cell-based, mouse; conditions: RAW264.7, ELISA; for inhibition at 5 µM: RAW264.7, BAPs (5 μM) + LPS (1 μg/mL)
Method: as §1

HepG2 = assay: Modified MTT cytotoxicity assay, HepG2; assay type: cell-based, Human; conditions: for IC50: MTT, 24 h incubation, three replicates, read-out: Cytotoxicity IC50 HepG2; for SI (selectivity index) HepG2: quotient of IC50 for normal (LO2) and malignant (HepG2) cells
Method: (§2) The HepG2, SMMC-7721, and LO2 cell lines were maintained at 37 °C, 5% humidified CO2, and 95% atmosphere. Dulbecco's Modified Eagle (DMEM) medium containing 10% foetal bovine serum (FBS) was used for culturing the HepG2 cell line; meanwhile, Roswell Park Memorial Institute (RPMI) 1640 medium containing 10% FBS was used for culturing other cell lines (SMMC-7721, LO2). The HepG2, SMMC-7721 and LO2 cells were seeded in a 96-well plate in 200 μL of medium per well at a density of approximately 8 × 10^3 cells/well and cultured for 24 h, followed by incubation in an incubator of indicated compounds with successive concentrations (10, 5, 2.5, 1.25, 0.625, 0.3125 μg/mL) for 24 h. In the control group, cells were only cultured with culture media. After the media were removed, 20 μL of MTT (5 mg/mL) was added, then cells were incubated for 4 h at 37 °C. […] GraphPad Prism 5 software was used to calculate their IC50 values. Every IC50 value was the average of three replicates. Doxorubicin (DOX) and curcumin were used as positive controls.

SMMC-7721 = assay: Modified MTT cytotoxicity assay, SMMC-7721; assay type: cell-based, Human; conditions: for IC50: MTT, 24 h incubation, three replicates; for SI (selectivity index) SMMC-7721: quotient of IC50 for normal (LO2) and malignant (SMMC-7721) cells
Method: as §2

A549 = assay: Modified MTT cytotoxicity assay, A549; conditions: for SI (selectivity index) A549: quotient of IC50 for normal (HHL-5) and malignant (A549) cells
[1] = Modified MTT cytotoxicity assay, normal heptical cell line HHL-5; conditions: human, HHL-5 cells (normal hepatic cell line)
Method: (§3) To further verify the anti-tumour activity, one human non-small cell lung cancer cell line (A549), one human ovarian cancer cell line (A2780), and one human normal heptical cell line (HHL-5) were screened by BAPs (4–30) using a modified MTT assay (Supporting Information). DOX and curcumin were selected as positive controls.
(§4) The optical density (OD) value of each well was measured on a
(§5) multi-well plate reader (TECAN, Mӓnnedorf, Switzerland ) at 570 nm.
(§6) Every IC 50 value was the average of three replicates.
(§7) Doxorubicin (DOX) and Curcumin were used as positive controls.

A2780 = assay: Modified MTT cytotoxicity assay, A2780; conditions: for SI (selectivity index) A2780: quotient of IC50 for normal (HHL-5) and malignant (A2780) cells
Method: as §3, §4, §5, §6, §7

[2] = Modified MTT cytotoxicity assay, normal heptical cell line LO2; assay type: cell-based, human; conditions: human, LO2 cells (normal hepatic cell line), 24 h incubation
Method: as §2

RAW264.7 cell = assay: MTT toxicity pre-experiment on RAW264.7 macrophagocyte; assay type: cell-based, mouse; conditions: for viability at 5 µM: Mus musculus, RAW264.7, BAPs 5 μM, read-out: Survival rate RAW264.7 cell
Method: Lipopolysaccharide (LPS) is a key constituent of Gram-negative bacterial endotoxin, which is used to induce an inflammatory response in corresponding inflammatory cells. TNF-α and IL-6 are two kinds of representative pro-inflammatory factors, which produced by LPS-stimulated RAW264.7 macrophage. In our pre-experiments, the toxicity against RAW264.7 macrophagocyte for all title compounds was tested by the MTT assay, and the results were listed in Table 2. The survival rates were above 80% for all BAPs (4-30) at the concentration of 5.0 μM.

LO2 = assay: Modified MTT cytotoxicity assay, normal heptical cell line LO2; assay type: cell-based, human; conditions: 24 h incubation
Method: as §2

[3] = Homo sapiens, A549, read-out: Cytotoxicity IC50 A549, MTT, non-small cell lung cancer cell line
[4] = Mus musculus, read-out: Inhibition rate TNF-α
[5] = Homo sapiens, A2780, read-out: Cytotoxicity IC50 A2780, MTT, ovarian cancer cell line
[6] = Mus musculus, read-out: Inhibition rate IL-6

SMILES	IC50 (HepG2; Homo sapiens, HepG2, 24 h) [µM]	IC50 (SMMC-7721; Homo sapiens, SMMC-7721, 24 h) [µM]	IC50 (A549; [3]) [µM]	inhibition at 5 µM (TNF-α; [4]) [%]	IC50 [1] [µM]	IC50 (A2780; [5]) [µM]	IC50 at 24 h [2] [µM]	inhibition at 5 µM (IL-6; [6]) [%]	viability at 5 µM (RAW264.7 cell) [%]	SI (selectivity index) HepG2 (HepG2)	SI (selectivity index) SMMC-7721 (SMMC-7721)	SI (selectivity index) A549 (A549)	SI (selectivity index) A2780 (A2780)	also measured
S=C(S)N1CCCC1 [PDTC, pyrrolidine dithiocarbamate, reference compound]														inhibition at 30 µM (TNF-α; Mus musculus, RAW264.7, PDTC 30 μM + LPS (1 μg/mL), read-out: Inhibition rate TNF-α): ~68.2%; inhibition at 30 µM (IL-6; Mus musculus, RAW264.7, PDTC 30 μM + LPS (1 μg/mL), read-out: Inhibition rate IL-6): ~59.1%
O=C1/C(=C/c2ccccc2C(F)(F)F)CN(S(=O)(=O)c2ccc(Cl)cc2)C/C1=C\c1ccccc1C(F)(F)F [BAP 9]	11 ± 0.3	10.4 ± 0.3	1.86 ± 0.61	47.1 ± 6.4	9.3 ± 0.1	0.62 ± 0.07	30.9 ± 0.3	38.2 ± 2.5	92.8 ± 4.2					
O=C1/C(=C/c2ccc(C(F)(F)F)cc2)CN(S(=O)(=O)c2ccc(Br)cc2)C/C1=C\c1ccc(C(F)(F)F)cc1 [BAP 28]	1.7 ± 0.2	1.9 ± 0.2	0.2 ± 0.02	> 70	20.7 ± 0.5	0.18 ± 0.04	14.2 ± 0.3	> 70	84 ± 3.6	8.4	7.5	103.5	115.0	
Cc1ccc(S(=O)(=O)N2C/C(=C\c3cccc(C(F)(F)F)c3)C(=O)/C(=C/c3cccc(C(F)(F)F)c3)C2)cc1 [BAP 14]	11.1 ± 0.2	5.6 ± 0.1	0.23 ± 0.04	60.2 ± 1.2	9.4 ± 0.2	0.14 ± 0.03	15.9 ± 0.1	66.3 ± 2	89.2 ± 1.8					
O=C1/C(=C/c2cccc(C(F)(F)F)c2)CN(S(=O)(=O)c2ccc(F)cc2)C/C1=C\c1cccc(C(F)(F)F)c1 [BAP 17]	3.4 ± 0.2	4.8 ± 0.3	0.28 ± 0.01	65.6 ± 1.2	3.5 ± 0.5	0.14 ± 0.01	19.5 ± 0.1	67.6 ± 2.2	85.1 ± 2					
N#Cc1ccc(S(=O)(=O)N2C/C(=C\c3ccccc3C(F)(F)F)C(=O)/C(=C/c3ccccc3C(F)(F)F)C2)cc1 [BAP 11]	9 ± 0.2	12 ± 0.2	64.2 ± 10.2	58.9 ± 3.2	15.5 ± 0.3	32.3 ± 7.69	13 ± 0.1	59.1 ± 5.2	84.2 ± 2	1.4	1.1	0.2	0.5	
O=C1/C(=C/c2ccccc2C(F)(F)F)CN(S(=O)(=O)c2ccccc2)C/C1=C\c1ccccc1C(F)(F)F [BAP 4]										1.8	2.0	3.8	0.2	IC50 (HepG2; listed as 4): 9.2 ± 0.2 µM; IC50 (HepG2): ~9.2 µM; IC50 (SMMC-7721): ~8.2 µM; IC50 (SMMC-7721; listed as 4): 8.2 ± 0.6 µM; IC50 (A549; read-out: Cytotoxicity IC50 A549, MTT, non-small cell lung cancer cell line): 2.24 ± 1.23 µM; Inhibition rate TNF-α (TNF-α; BAPs (5 μM) + LPS (1 μg/mL)): 62.1 ± 4.7%; IC50 (A2780; read-out: Cytotoxicity IC50 A2780, MTT, ovarian cancer cell line): 54 ± 12 µM; IC50 (LO2): 16.4 ± 0.2 µM; Inhibition rate IL-6 (IL-6; BAPs (5 μM) + LPS (1 μg/mL)): 70.7 ± 1.3%; Survival rate RAW264.7 cell (RAW264.7 cell; BAPs 5 μM): 82.2 ± 2.0%
